Where two headings read alike, the source gives them in different places.
Tests used:
[1] = alamarBlue cytotoxicity (CC50), GT1b replicon cell line; settings: human
Method: The anti-HCV activity of STG-175 was conducted using a panel of luciferase reporter replicon cell lines including GT1a, GT1b, GT2a, GT3a and GT4a as we described previously. The GT1a subgenomic renilla luciferase reporter replicon H77 RLucP (7) was supplied by Dr. Delaney. The GT1b subgenomic firefly luciferase reporter replicon pFK-I389/NS3-3’ [29] was supplied by Dr. Bartenschlager. The GT1B subgenomic NS3, NS5A and NS5B mutants were created via homologous recombination using the In-Fusion HD Cloning kit (Clontech) as we described previously. The GT2a genomic luciferase reporter replicon Luc-Neo-JFH-1 was generated as previously. The plasmid pFK-Luc-JFH1 was supplied from Drs. […] The CellTiter-Fluor™ Cell Viability Assay is a non-lytic fluorescence assay, which measures the number of live cells. […] Luciferase activity was determined using the Luciferase Assay System (Promega) in a Berthold luminometer. […] Viable cells continuously convert resazurin to resorufin, increasing the overall fluorescence and color of the media surrounding cells.
Fig 2 Anti-HCV activities of STG-175 among GTs. […] Luciferase activity was determined using the Luciferase Assay System in a Berthold luminometer. […] Data are expressed as mean of relative light units and calculated EC50s are presented. […]

[2] = tested on: wild-type Con1 (GT1b) replicon colonies; test: Degree of resistance of replicon colonies, wild-type; type: cell-based; settings: Hepatitis C virus, read-out: EC50 of STG-175, WT colonies
Method: Huh-7 cells expressing subgenomic Con1 (GT1b) replicon were incubated with STG-175 and 100 μg/ml of G418 in 10 cm CellBIND™ plates (Corning). Cells were split every 3 days at 1:6 and G418 concentration was increased sequentially to 200 and 300 μg/mL. […] At this point, medium was changed every 3–4 days until emergence of resistant clones. Clones were individually transferred to 24-well CellBIND using cloning disks. […] Each clone was split in 2 identical plates and was separately maintained under 0.5 or 1.0 μM STG-175 and 100 μg/mL of G418. Once the colonies were established, G418 concentration was increased to 300 μg/mL. […] Briefly, total RNA was prepared using the RNeasy Plus Mini Kit as per manufacturer’s recommendation. […] The amplicons were gel purified, quantitated and sequenced using primers located internally in NS5A or NS5B reading to the 5’ and 3’ ends. Sequences were assembled and analyzed using the ClustalW algorithm within the MacVector program. […]
Fig 3 Replicon clearance, replication rebound and resistance analyses. […] At each passage, samples of cells were collected, RNA extracted and analyzed by RT-PCR for HCV RNA levels. […] At each passage, sample of cells were collected, RNA extracted and analyzed by RT-PCR for HCV RNA levels. […] Data are expressed as number of HCV RNA copies per cell. […] Data are expressed as mean of relative light units and calculated EC50s are presented. […]

[3] = tested on: Con1 (GT1b) replicon colonies A, B, C (D320E NS5A); test: microbe, parasite or virus in culture; type: cell-based, hepatitis C virus; settings: for EC50: Hepatitis C virus, GT1B
Method: (§1) Huh-7 cells expressing subgenomic Con1 (GT1b) replicon were incubated with STG-175 and 100 μg/ml of G418 in 10 cm CellBIND™ plates (Corning). Cells were split every 3 days at 1:6 and G418 concentration was increased sequentially to 200 and 300 μg/mL. […] At this point, medium was changed every 3–4 days until emergence of resistant clones. Clones were individually transferred to 24-well CellBIND using cloning disks. […] Each clone was split in 2 identical plates and was separately maintained under 0.5 or 1.0 μM STG-175 and 100 μg/mL of G418. Once the colonies were established, G418 concentration was increased to 300 μg/mL. […] Briefly, total RNA was prepared using the RNeasy Plus Mini Kit as per manufacturer’s recommendation. Two hundred ng of total RNA was used for cDNA production using primers specific to the NS3-NS5B region or oligo(dT)18 using AccuScript High Fidelity 1st Strand cDNA Synthesis Kit (Stratagene). Amplicons were generated using primers defining the sequence at its 5’ and 3’ ends. The amplicons were gel purified, quantitated and sequenced using primers located internally in NS5A or NS5B reading to the 5’ and 3’ ends. Sequences were assembled and analyzed using the ClustalW algorithm within the MacVector program. The sequencing was conducted twice to ensure the authenticity of the nucleotide substitutions.
(§2) Fig 3 Replicon clearance, replication rebound and resistance analyses. […] Then drugs were removed to allow viral replication rebound to occur. At each passage, samples of cells were collected, RNA extracted and analyzed by RT-PCR for HCV RNA levels. B. Emergence of resistance: Con1 replicon Huh-7 cells were passaged 22 times in the absence or presence of STG-175 or selected DAAs. At each passage, sample of cells were collected, RNA extracted and analyzed by RT-PCR for HCV RNA levels. C. […] Data are expressed as number of HCV RNA copies per cell. […] Data are expressed as mean of relative light units and calculated EC50s are presented. […] E. Degree of resistance of D320E and Y321N Con1 variants: Left panel. Wild-type (WT), D320E and D320/Y321N NS5A Con1 RNA were electroporated into Huh7.5.1 cells and replication monitored over 8 days by quantifying the levels of intracellular HCV RNA. Right panel. Same as just above except that increasing concentrations of STG-175 were added at the time of the electroporation. […] STG-175 is taken as the substance from the printed x-axis title 'STG-175 in Log nM'.
(§3) We then sequenced the NS3-NS5B region of the HCV variants (colonies), which emerged after multiple passages under STG-175 selection. […] The five STG-175-resistant variants (5 colonies A to E) were then retested for STG-175 resistance by exposing them to increasing concentrations of STG-175 as we described previously.

[4] = tested on: Con1 (GT1b) replicon colonies D, E (D320E/Y321N NS5A); test: microbe, parasite or virus in culture; type: cell-based, hepatitis C virus; settings: for EC50: Hepatitis C virus, GT1B
Method: as §1, §2, §3

CC=CCC(C)C(O)C1C(=O)NC(CC)C(=O)N(C)C(CSCCCCO)C(=O)N(C)C(CC(C)(C)O)C(=O)NC(C(C)C)C(=O)N(C)C(CC(C)C)C(=O)NC(C)C(=O)NC(C)C(=O)N(C)C(CC(C)C)C(=O)N(C)C(CC(C)C)C(=O)N(C)C(C(C)C)C(=O)N1C (stereo not shown) [STG-175]
CC50 at 72 h [1]: > 10 µM | EC50 [2]: 0.0157 µM | average fold higher resistance than wild-type colonies, colonies A, B and C [3]: 10 fold | enhancement of resistance compared to wild-type replicon, colony A [3]: 7.2 fold | enhancement of resistance compared to wild-type replicon, colony B [3]: 7.8 fold | enhancement of resistance compared to wild-type replicon, colony C [3]: 15.1 fold | EC50 ([3]; read-out: EC50, colony A (Clone A)): 0.114 µM | EC50 ([3]; read-out: EC50, colony B (Clone B)): 0.122 µM | EC50 ([3]; read-out: EC50, colony C (Clone C)): 0.238 µM | EC50 ([3]; read-out: average EC50, colonies A, B and C): 0.158 µM | average fold higher resistance than wild-type colonies, colonies D and E [4]: 33.8 fold | enhancement of resistance compared to wild-type replicon, colony D [4]: 48.8 fold | enhancement of resistance compared to wild-type replicon, colony E [4]: 18.9 fold | EC50 ([4]; read-out: EC50, colony D (Clone D)): 0.767 µM | EC50 ([4]; read-out: EC50, colony E (Clone E)): 0.297 µM | EC50 ([4]; read-out: average EC50, colonies D and E): 0.531 µM
